Numbered stars: 1 amine (or outer) side, 2 acyl side, 3 side chain; on linkers, the order of the positions; unused ones are H or OH. Square brackets hold non-standard residues; d marks the D form. Peptide text beside a SMILES is read from it. * marks the point of attachment. Isobutyloxycarbonyl = CC(C)COC(=O)*; X1 = CCCC(N[*:1])C(=O)C(=O)[*:2]
Target: Genome polyprotein (Hepatitis C virus genotype 1a (isolate H77), UniProt P27958)
Experiment: Continuous Spectrophotometric Assay
Details: pH 6.5; 30 °C
Protocol: Proteolytic cleavage of the ester linkage between the Nva (L-norvaline) and the chromophore (PAP) was monitored for change in absorbance at 370 nm. Initial velocities were determined using linear regression and kinetic constants were obtained by fitting the data to the Michaelis-Menten equation.

Genome polyprotein, sequence (P27958 1027-1657 limits assumed): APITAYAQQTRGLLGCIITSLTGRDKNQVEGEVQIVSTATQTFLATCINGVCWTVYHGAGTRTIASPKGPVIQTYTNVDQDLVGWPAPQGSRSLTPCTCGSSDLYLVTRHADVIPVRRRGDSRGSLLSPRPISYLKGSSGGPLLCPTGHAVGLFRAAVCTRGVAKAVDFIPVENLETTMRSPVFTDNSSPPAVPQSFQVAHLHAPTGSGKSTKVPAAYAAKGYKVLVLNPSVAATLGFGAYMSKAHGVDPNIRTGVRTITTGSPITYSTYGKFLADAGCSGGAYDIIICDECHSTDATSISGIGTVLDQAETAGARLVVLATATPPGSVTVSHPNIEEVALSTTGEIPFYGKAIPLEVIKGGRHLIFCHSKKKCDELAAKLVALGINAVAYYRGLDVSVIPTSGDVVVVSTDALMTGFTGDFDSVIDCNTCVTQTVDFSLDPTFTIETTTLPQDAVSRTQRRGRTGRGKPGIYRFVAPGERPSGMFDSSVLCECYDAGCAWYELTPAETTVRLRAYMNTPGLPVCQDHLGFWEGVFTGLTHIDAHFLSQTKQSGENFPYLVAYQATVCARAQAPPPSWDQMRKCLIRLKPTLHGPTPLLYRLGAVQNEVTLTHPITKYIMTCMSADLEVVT

| Structure (SMILES) | Ki [µM] |
| --- | --- |
| CCCC(NC(=O)[C@@H]1CCCN1C(=O)[C@@H](NC(=O)OCC(C)C)C(C)C)C(=O)C(=O)NCC(=O)N[C@@H](CC(=O)O)C(=O)O (stereo partly drawn) [1,4-disodium (2S)-2-[2-(3-{[(2S)-1-[(2S)-3-methyl-2-{[(2-methylpropoxy)carbonyl]amino}butanoyl]pyrrolidin-2-yl]formamido}-2-oxohexanamido)acetamido]butanedioate] (Isobutyloxycarbonyl-VP[X1]GD-OH) | > 100 |
| CCCC(NC(=O)[C@@H]1CCCN1C(=O)[C@@H](NC(=O)OCC(C)C)C(C)C)C(=O)C(=O)NCC(=O)N[C@@H](CCC(=O)O)C(=O)O (stereo partly drawn) [1,5-dilithio (2S)-2-[2-(3-{[(2S)-1-[(2S)-3-methyl-2-{[(2-methylpropoxy)carbonyl]amino}butanoyl]pyrrolidin-2-yl]formamido}-2-oxohexanamido)acetamido]pentanedioate] (Isobutyloxycarbonyl-VP[X1]GE-OH) | > 100 |

Reference: BindingDB's records for doi:10.1016/j.bmcl.2005.06.091 (Schering-Plough Research Institute, 2005)
